Results on 17 compounds are retold here after patent US20260184691A1, “INHIBITORS AND DEGRADERS OF PIP4K PROTEIN” (Larkspur Biosciences, Inc., priority 2022, published 2026).

In this test the target is T1, endogenous PIP4K2C C-terminally tagged with HiBiT peptide in MOLT-4 cells (Homo sapiens, UniProt Q8TBX8).
T1 construct: to C-terminally tag endogenous PIP4K2C with HiBiT peptide; host or cells: MOLT-4 (CRISPR-Cas9 knock-in clone)
T1 sequence (Q8TBX8 1-421): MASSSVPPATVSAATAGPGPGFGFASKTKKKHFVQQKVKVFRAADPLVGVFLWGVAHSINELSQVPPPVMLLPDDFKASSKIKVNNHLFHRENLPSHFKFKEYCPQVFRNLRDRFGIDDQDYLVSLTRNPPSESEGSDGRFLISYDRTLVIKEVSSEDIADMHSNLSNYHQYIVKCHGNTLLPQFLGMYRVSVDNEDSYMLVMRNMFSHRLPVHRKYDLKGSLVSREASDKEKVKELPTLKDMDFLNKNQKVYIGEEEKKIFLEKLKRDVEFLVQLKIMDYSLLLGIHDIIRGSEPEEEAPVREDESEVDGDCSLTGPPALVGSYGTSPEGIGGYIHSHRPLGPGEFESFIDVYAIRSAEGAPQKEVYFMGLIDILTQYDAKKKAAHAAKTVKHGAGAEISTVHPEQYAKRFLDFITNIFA
Briefly: HiBiT PIP4K2C degradation assay in MOLT-4 cells. The format is cell-based. As to conditions: 24 hours, 10-point dose response, top concentration 10 micromolar, read-out: HiBIT-degradation MOLT4 PIP4k2C 24 hours DC50. As to the method: Following clonal selection, genotype was confirmed by Sanger sequencing. […] Nano-Glo® HiBiT Lytic Assay System was purchased from Promega (Madison, WI, Catalog number N3030). Cell culture flasks and 384-well microplates were purchased from Corning (Glendale, AZ).
To study PIP4K2C degradation, 384-well plates were plated with a 10-point dose response curve, 3-fold dilution, in duplicate with a top starting concentration of 10 micromolar. Subsequently 22,500 cells were added to each well and incubated at 37C in 5% CO2 for 24 hours. At the end of the incubation time, cells were treated with the Nano-Glo® HiBiT Lytic Detection System following the manufacturer's instructions. Luminescence was measured with a PHERAstar FSX plate reader (BMG Labtech, Cary, NC). The Levenberg-Marquardt algorithm was used to fit a Hill equation to dose-response data to calculate DC50 values (see Table 6).

Molecules are shown by their SMILES. Some results are limits rather than exact numbers.

`O=C1CCC(N2Cc3c(OCCCCCCCCCC(=O)N4CCC5(CC4)CCN(c4cncc(Nc6ncc(Cl)c(-c7cccc(-c8ccccc8)c7)n6)c4)C5=O)cccc3C2=O)C(=O)N1` (centres unmarked) [Compound 69, 3-(4-((10-(2-(5-((4-([1,1′-biphenyl]-3-yl)-5-chloropyrimidin-2-yl)amino)pyridin-3-yl)-1-oxo-2,8-diazaspiro[4.5]decan-8-yl)-10-oxodecyl)oxy)-1-oxoisoindolin-2-yl)piperidine-2,6-dione]: the DC50 is under 500 nM.

Regarding `O=C1CCC(N2Cc3c(OCCCCCCCC(=O)N4CCC5(CC4)CCN(c4cncc(Nc6ncc(Cl)c(-c7cccc(-c8ccccc8)c7)n6)c4)C5=O)cccc3C2=O)C(=O)N1` (centres unmarked) [Compound 70, 3-(4-((8-(2-(5-((4-([1,1′-biphenyl]-3-yl)-5-chloropyrimidin-2-yl)amino)pyridin-3-yl)-1-oxo-2,8-diazaspiro[4.5]decan-8-yl)-8-oxooctyl)oxy)-1-oxoisoindolin-2-yl)piperidine-2,6-dione], the DC50 was under 500 nM.

On to `O=C1CCC(N2Cc3c(OCCCCCCCCC(=O)N4CCC5(CC4)CCN(c4cncc(Nc6ncc(Cl)c(-c7cccc(-c8ccccc8)c7)n6)c4)C5=O)cccc3C2=O)C(=O)N1` (centres unmarked) [Compound 71, 3-(4-((9-(2-(5-((4-([1,1′-biphenyl]-3-yl)-5-chloropyrimidin-2-yl)amino)pyridin-3-yl)-1-oxo-2,8-diazaspiro[4.5]decan-8-yl)-9oxononyl)oxy)-1-oxoisoindolin-2-yl)piperidine-2,6-dione], for which the DC50 is under 500 nM.

As for `O=C1CCC(N2C(=O)c3ccc(OCCCCCCCCC(=O)N4CCC5(CC4)CCN(c4cncc(Nc6ncc(Cl)c(-c7cccc(-c8ccccc8)c7)n6)c4)C5=O)cc3C2=O)C(=O)N1` (centres unmarked) [Compound 72, 5-((9-(2-(5-((4-([1,1′-biphenyl]-3-yl)-5-chloropyrimidin-2-yl)amino)pyridin-3-yl)-1-oxo-2,8-diazaspiro[4.5]decan-8-yl)-9-oxononyl)oxy)-2-(2,6-dioxopiperidin-3-yl)isoindoline-1,3-dione], the DC50 was under 500 nM.

For `O=C1CCC(N2C(=O)c3ccc(OCCCCCCCC(=O)N4CCC5(CC4)CCN(c4cncc(Nc6ncc(Cl)c(-c7cccc(-c8ccccc8)c7)n6)c4)C5=O)cc3C2=O)C(=O)N1` (centres unmarked) [Compound 73, 5-((8-(2-(5-((4-([1,1′-biphenyl]-3-yl)-5-chloropyrimidin-2-yl)amino)pyridin-3-yl)-1-oxo-2,8-diazaspiro[4.5]decan-8-yl)-8-oxooctyl)oxy)-2-(2,6-dioxopiperidin-3-yl)isoindoline-1,3-dione], the DC50 was under 500 nM.

Turning to `O=C1CCC(N2C(=O)c3ccc(OCCCCCCC(=O)N4CCC5(CC4)CCN(c4cncc(Nc6ncc(Cl)c(-c7cccc(-c8ccccc8)c7)n6)c4)C5=O)cc3C2=O)C(=O)N1` (centres unmarked) [Compound 74, 5-((7-(2-(5-((4-([1,1′-biphenyl]-3-yl)-5-chloropyrimidin-2-yl)amino)pyridin-3-yl)-1-oxo-2,8-diazaspiro[4.5]decan-8-yl)-7-oxoheptyl)oxy)-2-(2,6-dioxopiperidin-3-yl)isoindoline-1,3-dione], the DC50 is under 500 nM.

`O=C1CCC(N2C(=O)c3ccc(OCCCCCC(=O)N4CCC5(CC4)CCN(c4cncc(Nc6ncc(Cl)c(-c7cccc(-c8ccccc8)c7)n6)c4)C5=O)cc3C2=O)C(=O)N1` (centres unmarked) [Compound 75, 5-((6-(2-(5-((4-([1,1′-biphenyl]-3-yl)-5-chloropyrimidin-2-yl)amino)pyridin-3-yl)-1-oxo-2,8-diazaspiro[4.5]decan-8-yl)-6-oxohexyl)oxy)-2-(2,6-dioxopiperidin-3-yl)isoindoline-1,3-dione]: the DC50 is under 500 nM.

`O=C1CCC(N2C(=O)c3ccc(OCCCCC(=O)N4CCC5(CC4)CCN(c4cncc(Nc6ncc(Cl)c(-c7cccc(-c8ccccc8)c7)n6)c4)C5=O)cc3C2=O)C(=O)N1` (centres unmarked) [Compound 76, 5-((5-(2-(5-((4-([1,1′-biphenyl]-3-yl)-5-chloropyrimidin-2-yl)amino)pyridin-3-yl)-1-oxo-2,8-diazaspiro[4.5]decan-8-yl)-5-oxopentyl)oxy)-2-(2,6-dioxopiperidin-3-yl)isoindoline-1,3-dione]: the DC50 is under 500 nM.

Consider `O=C(COc1cccc2c1C(=O)N(C1CCC(=O)NC1=O)C2=O)NCCCCCCCC(=O)N1CCC2(CC1)CCN(c1cncc(Nc3ncc(Cl)c(-c4cccc(-c5ccccc5)c4)n3)c1)C2=O` (centres unmarked) [Compound 77, N-(8-(2-(5-((4-([1,1′-biphenyl]-3-yl)-5-chloropyrimidin-2-yl)amino)pyridin-3-yl)-1-oxo-2,8-diazaspiro[4.5]decan-8-yl)-8-oxooctyl)-2-((2-(2,6-dioxopiperidin-3-yl)-1,3-dioxoisoindolin-4-yl)oxy)acetamide], for which the DC50 is under 500 nM.

With `O=C1CCC(N2C(=O)c3cccc(OCCCCCCCCC(=O)N4CCC5(CC4)CCN(c4cncc(Nc6ncc(Cl)c(-c7cccc(-c8ccccc8)c7)n6)c4)C5=O)c3C2=O)C(=O)N1` (centres unmarked) [Compound 78, 4-((9-(2-(5-((4-([1,1′-biphenyl]-3-yl)-5-chloropyrimidin-2-yl)amino)pyridin-3-yl)-1-oxo-2,8-diazaspiro[4.5]decan-8-yl)-9-oxononyl)oxy)-2-(2,6-dioxopiperidin-3-yl)isoindoline-1,3-dione], the DC50 was in the range of 500 to 1000 nM.

`O=C1CCC(N2C(=O)c3cccc(OCCCCCCCC(=O)N4CCC5(CC4)CCN(c4cncc(Nc6ncc(Cl)c(-c7cccc(-c8ccccc8)c7)n6)c4)C5=O)c3C2=O)C(=O)N1` (centres unmarked) [Compound 79, 4-((8-(2-(5-((4-([1,1′-biphenyl]-3-yl)-5-chloropyrimidin-2-yl)amino)pyridin-3-yl)-1-oxo-2,8-diazaspiro[4.5]decan-8-yl)-8-oxooctyl)oxy)-2-(2,6-dioxopiperidin-3-yl)isoindoline-1,3-dione]: the DC50 was under 500 nM.

On to `O=C1CCC(N2C(=O)c3cccc(OCCCCCCC(=O)N4CCC5(CC4)CCN(c4cncc(Nc6ncc(Cl)c(-c7cccc(-c8ccccc8)c7)n6)c4)C5=O)c3C2=O)C(=O)N1` (centres unmarked) [Compound 80, 4-((7-(2-(5-((4-([1,1′-biphenyl]-3-yl)-5-chloropyrimidin-2-yl)amino)pyridin-3-yl)-1-oxo-2,8-diazaspiro[4.5]decan-8-yl)-7-oxoheptyl)oxy)-2-(2,6-dioxopiperidin-3-yl)isoindoline-1,3-dione], for which the DC50 is under 500 nM.

As to `O=C(CCCOc1cccc2c1C(=O)N(C1CCC(=O)NC1=O)C2=O)NCCCCCCCC(=O)Nc1cncc(Nc2ncc(Cl)c(-c3cccc(-c4ccccc4)c3)n2)c1` (centres unmarked) [Compound 81, N-(5-((4-([1,1′-biphenyl]-3-yl)-5-chloropyrimidin-2-yl)amino)pyridin-3-yl)-8-(4-((2-(2,6-dioxopiperidin-3-yl)-1,3-dioxoisoindolin-4-yl)oxy)butanamido)octanamide], the DC50 was under 500 nM.

Turning to `O=C1CCC(N2Cc3cc(NCCCCCC(=O)N4CCC5(CC4)CCN(c4cncc(Nc6ncc(Cl)c(-c7cccc(-c8ccccc8)c7)n6)c4)C5=O)ccc3C2=O)C(=O)N1` (centres unmarked) [Compound 82, 3-(5-((6-(2-(5-((4-([1,1′-biphenyl]-3-yl)-5-chloropyrimidin-2-yl)amino)pyridin-3-yl)-1-oxo-2,8-diazaspiro[4.5]decan-8-yl)-6-oxohexyl)amino)-1-oxoisoindolin-2-yl)piperidine-2,6-dione], the DC50 was under 500 nM.

As for `O=C(CCCCCOc1cccc2c1C(=O)N(C1CCC(=O)NC1=O)C2=O)NCCCCCC(=O)Nc1cncc(Nc2ncc(Cl)c(-c3cccc(-c4ccccc4)c3)n2)c1` (centres unmarked) [Compound 83, N-(5-((4-([1,1′-biphenyl]-3-yl)-5-chloropyrimidin-2-yl)amino)pyridin-3-yl)-6-(6-((2-(2,6-dioxopiperidin-3-yl)-1,3-dioxoisoindolin-4-yl)oxy)hexanamido)hexanamide], the DC50 fell in the range of 1000 to 5000 nM.

In the case of `O=C1CCC(N2Cc3cc(NCCCCC(=O)N4CCC5(CC4)CCN(c4cncc(Nc6ncc(Cl)c(-c7cccc(-c8ccccc8)c7)n6)c4)C5=O)ccc3C2=O)C(=O)N1` (centres unmarked) [Compound 84, 3-(5-((5-(2-(5-((4-([1,1′-biphenyl]-3-yl)-5-chloropyrimidin-2-yl)amino)pyridin-3-yl)-1-oxo-2,8-diazaspiro[4.5]decan-8-yl)-5-oxopentyl)amino)-1-oxoisoindolin-2-yl)piperidine-2,6-dione], the DC50 was under 500 nM.

As for `O=C(COc1cccc2c1C(=O)N(C1CCC(=O)NC1=O)C2=O)NCCCCCCCCCC(=O)Nc1cncc(Nc2ncc(Cl)c(-c3cccc(-c4ccccc4)c3)n2)c1` (centres unmarked) [Compound 85, N-(5-((4-([1,1′-biphenyl]-3-yl)-5-chloropyrimidin-2-yl)amino)pyridin-3-yl)-10-(2-((2-(2,6-dioxopiperidin-3-yl)-1,3-dioxoisoindolin-4-yl)oxy)acetamido)decanamide], the DC50 fell in the range of 500 to 1000 nM.
